Test results from PMC4831007, “Discovery of a specific inhibitor of human GLUT5 by virtual screening and in vitro transport evaluation” (Scientific Reports, 2016).
Read-outs that look alike come from different tables or passages of the source.

Assays:
GlcPSe = molecular target: T1, GlcPSe (Staphylococcus epidermidis, UniProt A0A0H2VG78, F348H); assay: biochemical; conditions: read-out: % inhibition at 2 mM
T1 construct: gene glcP

native human GLUT5 = molecular target: T2, native human GLUT5 (Homo sapiens, UniProt P22732); assay: […]-fructose uptake in MCF7 cells, Dixon plot; assay type: cell-based; conditions: competitive with fructose; 50 μM cytochalasin B present to block GLUT2; 3-20 mM fructose; 2 min; 22 °C
T2 construct: gene SLC2A5; native full-length transporter in MCF7 breast cancer cells
T2 sequence (P22732 1-501): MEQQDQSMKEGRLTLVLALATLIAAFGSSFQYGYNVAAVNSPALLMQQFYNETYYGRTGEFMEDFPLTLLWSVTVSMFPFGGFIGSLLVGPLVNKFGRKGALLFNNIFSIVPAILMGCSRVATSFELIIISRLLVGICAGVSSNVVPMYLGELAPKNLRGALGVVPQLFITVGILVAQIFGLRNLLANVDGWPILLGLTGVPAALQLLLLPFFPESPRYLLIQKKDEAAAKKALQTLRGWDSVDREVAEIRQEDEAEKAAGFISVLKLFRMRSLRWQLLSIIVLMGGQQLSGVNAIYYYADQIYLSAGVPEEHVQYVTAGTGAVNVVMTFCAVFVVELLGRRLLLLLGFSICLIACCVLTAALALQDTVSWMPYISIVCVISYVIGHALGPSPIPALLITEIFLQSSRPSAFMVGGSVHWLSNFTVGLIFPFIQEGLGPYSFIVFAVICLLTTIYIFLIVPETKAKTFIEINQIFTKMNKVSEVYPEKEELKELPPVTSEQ

GLUT1 [1] = molecular target: T3, GLUT1 (Homo sapiens, UniProt P11166); assay: […]-glucose entrance counter-flow in proteoliposomes; assay type: biochemical
T3 construct: gene SLC2A1; full length, N-terminal His6 tag, Sf21 insect cells, purified in DDM, reconstituted in proteoliposomes
T3 sequence (P11166 1-492): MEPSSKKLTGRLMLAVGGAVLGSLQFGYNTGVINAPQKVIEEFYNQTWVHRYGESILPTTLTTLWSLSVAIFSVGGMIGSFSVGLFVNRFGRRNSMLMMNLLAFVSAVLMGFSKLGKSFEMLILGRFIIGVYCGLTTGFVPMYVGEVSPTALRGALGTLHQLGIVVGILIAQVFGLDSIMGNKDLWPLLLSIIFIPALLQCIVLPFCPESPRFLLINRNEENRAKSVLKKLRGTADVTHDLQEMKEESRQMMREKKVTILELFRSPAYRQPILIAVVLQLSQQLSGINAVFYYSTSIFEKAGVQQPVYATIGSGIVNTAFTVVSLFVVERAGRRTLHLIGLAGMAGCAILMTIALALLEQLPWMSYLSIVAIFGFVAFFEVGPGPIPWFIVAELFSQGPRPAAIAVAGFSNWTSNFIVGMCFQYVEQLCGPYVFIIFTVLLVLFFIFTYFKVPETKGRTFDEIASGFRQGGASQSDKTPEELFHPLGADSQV

GLUT2 [2] = molecular target: T4, GLUT2 (Homo sapiens, UniProt P11168); assay: […]-fructose entrance counter-flow in proteoliposomes; assay type: biochemical; conditions: 10 μM 14C-fructose outside, 200 mM fructose inside; pH 7.5; 1 min; labelled compound
T4 construct: gene SLC2A2; full length, N-terminal His6 tag, Sf21 insect cells, purified in DDM, reconstituted in proteoliposomes
T4 sequence (P11168 1-524): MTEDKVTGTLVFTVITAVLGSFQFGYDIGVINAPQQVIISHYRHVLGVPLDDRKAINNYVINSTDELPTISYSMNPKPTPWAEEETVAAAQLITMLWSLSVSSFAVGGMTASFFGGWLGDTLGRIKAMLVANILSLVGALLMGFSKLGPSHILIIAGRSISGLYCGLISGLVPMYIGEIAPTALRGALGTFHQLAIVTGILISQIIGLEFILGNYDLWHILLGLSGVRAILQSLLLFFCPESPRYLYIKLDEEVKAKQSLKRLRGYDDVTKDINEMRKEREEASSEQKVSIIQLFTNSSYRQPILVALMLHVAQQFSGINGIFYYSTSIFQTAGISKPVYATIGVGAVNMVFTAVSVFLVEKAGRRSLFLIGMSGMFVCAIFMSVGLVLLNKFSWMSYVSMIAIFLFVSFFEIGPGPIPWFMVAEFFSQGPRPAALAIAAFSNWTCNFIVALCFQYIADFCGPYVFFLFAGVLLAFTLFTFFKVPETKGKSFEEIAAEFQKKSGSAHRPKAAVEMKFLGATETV

GLUT1 [3] = molecular target: T3, GLUT1; assay: […]-glucose entrance counter-flow in proteoliposomes; assay type: biochemical; conditions: 10 μM 14C-glucose outside, 200 mM glucose inside; pH 7.5; 1 min; labelled compound
GLUT2 [4] = molecular target: T4, GLUT2; assay: as above; assay type: biochemical; conditions: 10 μM 14C-glucose outside, 200 mM glucose inside; pH 7.5; 1 min; labelled compound
GLUT3 = molecular target: T5, GLUT3 (Homo sapiens, UniProt P11169); assay: as above; assay type: biochemical; conditions: 10 μM 14C-glucose outside, 200 mM glucose inside; pH 7.5; 1 min; labelled compound
T5 construct: gene SLC2A3; full length, N-terminal His6 tag, Sf21 insect cells, purified in DDM, reconstituted in proteoliposomes
T5 sequence (P11169 1-496): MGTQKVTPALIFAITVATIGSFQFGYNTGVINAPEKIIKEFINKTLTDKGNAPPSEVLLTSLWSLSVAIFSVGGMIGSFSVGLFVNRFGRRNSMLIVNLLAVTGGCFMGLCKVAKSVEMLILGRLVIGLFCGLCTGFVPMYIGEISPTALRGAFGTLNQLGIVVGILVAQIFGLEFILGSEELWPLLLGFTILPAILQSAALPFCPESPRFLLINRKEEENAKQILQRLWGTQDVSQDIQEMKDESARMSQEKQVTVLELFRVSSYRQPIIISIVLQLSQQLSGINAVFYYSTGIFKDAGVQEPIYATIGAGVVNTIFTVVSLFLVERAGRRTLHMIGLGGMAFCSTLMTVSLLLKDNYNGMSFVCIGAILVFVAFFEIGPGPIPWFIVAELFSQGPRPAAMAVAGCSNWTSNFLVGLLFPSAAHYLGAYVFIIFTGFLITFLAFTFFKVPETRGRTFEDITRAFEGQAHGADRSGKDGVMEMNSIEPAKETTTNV

GLUT4 = molecular target: T6, GLUT4 (Homo sapiens, UniProt P14672); assay: as above; assay type: biochemical; conditions: 10 μM 14C-glucose outside, 200 mM glucose inside; pH 7.5; 1 min; labelled compound
T6 construct: gene SLC2A4; full length, N-terminal His6 tag, Sf21 insect cells, purified in DDM, reconstituted in proteoliposomes
T6 sequence (P14672 1-509): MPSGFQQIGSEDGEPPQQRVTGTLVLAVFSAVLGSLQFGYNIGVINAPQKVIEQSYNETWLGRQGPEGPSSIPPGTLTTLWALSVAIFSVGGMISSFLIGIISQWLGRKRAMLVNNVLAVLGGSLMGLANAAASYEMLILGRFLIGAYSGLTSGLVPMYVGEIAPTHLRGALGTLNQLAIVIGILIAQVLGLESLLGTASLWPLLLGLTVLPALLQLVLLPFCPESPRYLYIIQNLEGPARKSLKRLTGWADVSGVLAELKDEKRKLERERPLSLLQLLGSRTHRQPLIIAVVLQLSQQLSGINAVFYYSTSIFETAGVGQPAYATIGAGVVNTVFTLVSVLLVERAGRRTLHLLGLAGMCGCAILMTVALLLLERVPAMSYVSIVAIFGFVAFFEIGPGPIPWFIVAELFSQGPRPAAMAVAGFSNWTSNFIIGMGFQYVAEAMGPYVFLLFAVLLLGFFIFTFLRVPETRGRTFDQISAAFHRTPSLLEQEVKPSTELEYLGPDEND

T1 sequence (A0A0H2VG78 whole entry F348H): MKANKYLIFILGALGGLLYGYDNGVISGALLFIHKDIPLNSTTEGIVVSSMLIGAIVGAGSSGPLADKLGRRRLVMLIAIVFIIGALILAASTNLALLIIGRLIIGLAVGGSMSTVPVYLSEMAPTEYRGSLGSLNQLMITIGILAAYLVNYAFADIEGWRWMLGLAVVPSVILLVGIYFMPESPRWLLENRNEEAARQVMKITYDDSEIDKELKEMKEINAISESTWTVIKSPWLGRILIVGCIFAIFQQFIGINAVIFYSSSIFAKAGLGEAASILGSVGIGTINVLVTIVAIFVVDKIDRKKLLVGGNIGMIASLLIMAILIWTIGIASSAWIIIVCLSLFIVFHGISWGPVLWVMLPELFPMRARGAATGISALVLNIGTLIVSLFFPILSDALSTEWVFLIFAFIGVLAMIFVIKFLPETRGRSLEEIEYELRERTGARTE

CS(=O)(=O)c1ccc(Nc2ccc3c(c2)OCO3)c([N+](=O)[O-])c1 [MSNBA, N-[4-(methylsulfonyl)-2-nitrophenyl]-1,3-benzodioxol-5-amine]
inhibition at 2000 µM (GlcPSe): 75% | Ki (native human GLUT5): 3.2 ± 0.4 µM

C=C1[C@@H](C)[C@H]2[C@H](Cc3ccccc3)NC(=O)[C@]23OC(=O)/C=C/[C@H](O)CCC[C@@H](C)C/C=C/[C@H]3[C@@H]1O [cytochalasin B]
% inhibition at 2 mM (GLUT1 [1]; 10 μM 14C-glucose outside, 200 mM glucose inside, pH 7.5, 1 min): Effect of common GLUT1 inhibitors on the relative transport activity of GLUT5, GLUT1 and GlcPSe

OCC1(O)OC[C@@H](O)[C@@H](O)[C@@H]1O (stereo partly drawn) [fructose]
14C-fructose entrance counter-flow in proteoliposomes (GLUT2 [2]): fructose transport of GLUT2 were assayed by the entrance counter-flow method in proteoliposomes

OC[C@H]1OC(O)[C@H](O)[C@@H](O)[C@@H]1O (stereo partly drawn) [glucose]
14C-glucose entrance counter-flow in proteoliposomes (GLUT1 [3]): Glucose transport of GLUT1, GLUT2, GLUT3 and GLUT4 | 14C-glucose entrance counter-flow in proteoliposomes (GLUT2 [4]): Glucose transport of GLUT1, GLUT2, GLUT3 and GLUT4 | 14C-glucose entrance counter-flow in proteoliposomes (GLUT3): Glucose transport of GLUT1, GLUT2, GLUT3 and GLUT4 | 14C-glucose entrance counter-flow in proteoliposomes (GLUT4): Glucose transport of GLUT1, GLUT2, GLUT3 and GLUT4

O=C(CCc1ccc(O)cc1)c1c(O)cc(O)cc1O [phloretin]
% inhibition at 2 mM (GLUT1 [1]): Effect of common GLUT1 inhibitors on the relative transport activity of GLUT5, GLUT1 and GlcPSe
